Values of other authors in US20210113548A1, “METHODS FOR DETERMINING A DRUG DOSING REGIMEN” (Clear Creek Bio, Inc., priority 2019, published 2021).

What was measured:
solid tumor malignancies = conditions: administered over a 5-day period followed by a 3-week gap or once per week for three weeks followed by a 1-week gap

**Q.** For `Cc1c(-c2ccc(-c3ccccc3F)cc2)nc2ccc(F)cc2c1C(=O)O` [brequinar, 6-fluoro-2-(2′-fluoro-1,1′ biphenyl-4-yl)-3-methyl-4-quinoline carboxylic acid], which “efficacy in treatment of solid tumor malignancies” value (solid tumor malignancies) is on record?
**A.** Its value is “ineffective”.

**Q.** What about the “adverse effects of daily administration of high doses” value (mouse model of AML) of the same compound?
**A.** Its value is “weight loss, anemia, and thrombocytopenia”.
